# Measured values: PMC5707067, “Farnesyl phenolic enantiomers as natural MTH1 inhibitors from Ganoderma sinense” (Oncotarget, 2017)
# What was measured:
# SW620 cells [1] = test: EdU cell proliferation assay; type: cell-based, human; conditions: 50 μM or 150 μM vs control, P<0.001
# Description: EdU cell proliferation assays were carried out to detect the effects of compounds on DNA replication. EdU (5-Ethynyl-2- deoxyuridine), a thymidine analog, can penetrate into the replicating DNA molecule. Based on the specific response of EdU and fluorescent dyes, DNA replication activity could be detected.
# SW620 cells were pretreated with 0, 50, 150 μM of compound 1, respectively. Dissociated cells were handled with EdU cell proliferation kit (RiboBio) according to the manuscript by according to the manufacturer's instructions. Then the morphology was observed by fluorescence microscopy (Zeiss, OBSERVER D1/AX10 cam HRC).
# SW620 cells [2] = test: Apoptosis analysis (Annexin V/PI flow cytometry); type: cell-based, human; conditions: 24 hours, control group 12.03%
# Description: The apoptosis of cells induced by compounds was further investigated. SW620 cells were pretreated with series concentration of compound 1 for 24 hours. The number of apoptosis cells was quantified by flow cytometry.
# Figure 5 Compound 1 induced DNA damage and hindered the replication of DNA in cancer cells causing cell apoptosis (A) SW620 cells were treated with 0, 50 or 150 μM of compound 1 and then processed for FACS by using Annexin V/propidium iodide staining. (B, C) Immunofluorescence staining analysis of EDU^+ and quantification of EDU^+ in SW620 cells treated with 0, 50 or 150 μM of compound 1. Stained graphs were observed through a fluorescence microscope (× 200 magnification). Bar = 20 μm. Data are shown as mean ± s.d. (n = 3). (D, E, F) Immunofluorescence staining analysis of 53BP1 and quantification of 53BP1 foci formation in SW620 treated for 24 h with 50 μM of compound 1. It was observed through a confocal microscope (× 400 magnification). Bar = 50 μm Data are shown as mean ± s.d. (n = 3). […]
# Apoptotic cells were staining with Annexin-V-FITC and Propidium Iodide (PI) (Annexin V-FITC/PI double staining cell apoptosis detection kit) following the manufacturer's protocol. Fluorescence was recorded by flow cytometry using the FACSort (BD Bio sciences).
# [3] = test system: human osteosarcoma cells (U2OS); test: CCK8 cytotoxicity assay, U2OS; type: cell-based; conditions: Homo sapiens, U2OS; CCK8, 48 h, carcinoma cell line
# From the text: The growth inhibitory effects of the isolated farnesyl phenolic compounds (1–8) against carcinoma cell lines [human osteosarcoma cells (U2OS), human colorectal carcinoma cells (SW620), human ES-2 ovarian carcinoma cells (ES-2)] and normal tissue cell lines [human hepatic cells (Lo2), African green monkey kidney vero cells (Vero)] were further investigated using CCK8 assay method (Table 3).
# Carcinoma cell lines [human osteosarcoma cells (U2OS), human colorectal carcinoma cells (SW620), human ES-2 ovarian carcinoma cells (ES-2)] and normal tissue cell lines [human hepatic cells (Lo2), African green monkey kidney Vero cells (Vero)] The U2OS, SW620, ES-2, Lo2 and Vero were obtained from ATCC (Manassas, VA, USA). The SW620 and Vero cells were cultured in Roswell Park Memorial Institute medium (RPMI), with 10% fetal bovine serum (Hyclone) and 1% penicillin-streptomycin (Sigma). Lo2, U2OS and ES-2 cells were grown in Dulbecco's modified eagle medium (DMEM), with 10% fetal bovine serum (Hyclone) and 1% penicillin-streptomycin (Sigma). All of these cells were cultured at 37°C in a humidified atmosphere with 5% CO2. For CCK8 assay cytotoxicity evaluation of compounds, all cells were separately plated at a density of 1 × 10^4 cells/well in a 96 well plate. Cells were cultivated at 37°C in 5% CO2 atmosphere for 24 h, then medium in the wells was replaced with fresh medium containing compounds which were diluted in 8 dilution steps covering the range from 200 μM to 1.5625 μM. And DMSO was used as negative control. After 48 h incubation, 10 μL of CCK8 solution was added to each well. After 30 min, the optical density (OD) of each well was measured at wavelength of 450 nm on spectrophotometer. Data were corrected for background (no-cell control) and expressed as a percentage of the value for untreated cells. The IC50 values of the isolated compounds were derived from the mean OD values of the triplicate tests versus the drug concentration curves.
# MTH1 in SW620 cells = biological target: T1, MTH1 in SW620 cells (Homo sapiens, UniProt P36639); test: Cellular thermal shift assay (CETSA); type: cell-based; conditions: 30 μM, 12 hours, 44-54°C, vs DMSO, Western blot
# T1 construct: endogenous in cells; host or cells: SW620
# Description: The cellular thermal shift assay (CETSA) was recently developed to further confirm the interaction between the target and the compound in vitro by Western blot assay. CETSA was applied based on the principles that the ligand binding gave rise to the thermal stabilization of target proteins. The thermal stability of MTH1 in SW620 cells was tested at the temperature range of 44-54°C after the pretreatment of compound 1 for 12 hours (Figure 6E and 6F). Correspondingly, the control cells were treated with DMSO. […] Compared with the control group, the thermal stability of MTH1 protein in compound 1 pretreated cells was better under the same temperature condition.
# CETSA was developed as a method to directly detect the binding capacity of compounds with targets at the cellular level, based on the principle of ligand-induced target protein stabilization. […] Subsequently, cells were analysed by Western blot assay.
# The harvested cells were lysed with liquid nitrogen and the freeze-thaw cycles were repeated twice. […] Proteins was quantified by Bradford reagent (Bio-Rad, USA). The same amount of proteins (20-40 μg) were loaded onto 15% SDS-PAGE gels and transferred to polyvinylidene difluoride membranes (PVDF) (Millipore, USA) and analyzed using the MTH1-antibody (Proteintech) at a concentration of 1: 500. […]
# MTH1 = MTH1 (Homo sapiens, UniProt P36639); test: Microscale thermophoresis (MST) binding assay
# Description: Microscale thermophoresis method (MST) was employed to assay the binding affinity between the compounds and MTH1. […] The dissociation constant Kd values were automatically calculated by using the NT Analysis software (Nano Temper Technologies, München, Germany).
# Recombinant human MTH1 was labeled with the Monolith NT™ Protein Labeling Kit RED (Cat#L001) according to the supplied labeling protocol [32]. Labelled MTH1 was kept constant at 100 nM, while all samples tested were diluted in a 20 mM HEPES (pH 7.5) and 0.05 (v/v) % Tween-20. Compounds were diluted in 12 dilution steps covering the range from 500 μM to 200 nM. After 10 min incubation at room temperature about 37°C, samples were loaded into Monolith™ standard-treated capillaries and the thermophoresis was measured at 25°C after 30 min incubation on a Monolith NT.115 instrument (NanoTemper Technologies, München, Germany). Laser power was set to 20% using 30 seconds on-time. The LED power was set to 100%. The dissociation constant Kd values were fitted by using the NTAnalysis software (NanoTemper Technologies, München, Germany). The Kd value of the binding was obtained in two ways. The first way was calculated by thermophoresis curve when there was no fluorescent change during the initial fluorescence scanning. The second way was calculated from the initial fluorescence scanning curve when compounds bound in the sites which directly interfered the fluorescence.
compound,measurement,setting,value
"CO[C@]1(c2cc(O)cc(O)c2)C=C(CCCC(CO)CC/C=C(\C)COC(=O)/C=C/c2ccc(O)cc2)C(=O)O1 (stereo partly drawn) [Compound 1, (5R)-3-{9-[(E)-coumaroyl]-4-hydroxymethyl-8-methyl-7-nonene}-5-(3,5-dihydroxyphenyl)-5-methoxy-2(5H)-furanone]",percentage of EdU+ cells,SW620 cells [1],significantly deceased
same,SW620 cells apoptotic death,SW620 cells [2]; 50 μM,45.09%
same,SW620 cells apoptotic death,SW620 cells [2]; 150 μM,91.11%
same,IC50,[3],111 ± 1.29 µM
same,thermal stability of MTH1 protein,MTH1 in SW620 cells,better
same,Kd,MTH1,4.71 ± 0.686 µM
